For series [1], the target named is Protein cereblon/Bromodomain-containing protein 4 (Homo sapiens, UniProt O60885+Q96SW2). Kind of series: PROTAC activity at CRBN/BRD4 in human MV4-11 cells assessed as induction of degradation of BRD4 measured after 24 hrs by Western blot analysis. Format: cell-based. (In general: In western blotting, separated proteins are transferred to a membrane and probed.)

The test system of a further series is NCI/ADR-RES. Kind of series: Antiproliferative activity against human MCF7ADR cells assessed as reduction in cell growth measured after 48 hrs by MTT assay. Format: functional, cell-based.
Series [2] has as its target Serine/threonine-protein kinase PLK1 (Homo sapiens, UniProt P53350). Kind of series: Inhibition of PLK1 (unknown origin) (37 to 345 residues) expressed in Escherichia coli BL21 (DE3) incubated for 18 hrs by fluorescence polarization assay. For orientation: In fluorescence polarisation assays a small probe gives low polarisation when free and higher when bound to something large.

The next series concerns HeLa. Kind of series: Antiproliferative activity against human HeLa cells assessed as reduction in cell viability incubated for 24 hrs by MTT assay. Format: functional, cell-based. On the technique in general: Formazan colour is commonly taken as a measure of viable cells.
Series [3] can be described thus: Clearance in Sprague-Dawley rat at 1 mg/kg, iv measured for 24 hrs by LC-MS/MS analysis. Format: ADME, organism-based. The conditions noted are these: in vivo.
Series [4] can be described thus: Clearance in Sprague-Dawley rat at 50 mg/kg, ip measured after 24 hrs by LC-MS/MS analysis. Format: ADME, organism-based. To be noted: in vivo.
Series [5] in a line: Half life in Sprague-Dawley rat at 1 mg/kg, iv measured for 24 hrs by LC-MS/MS analysis. The format is ADME, organism-based. To be noted: in vivo.
The nature of series [6]: Half life in Sprague-Dawley rat at 50 mg/kg, ip measured for 24 hrs by LC-MS/MS analysis. Format: ADME, organism-based. The conditions noted are these: in vivo.
Series [7] is described as follows: Oral bioavailability in Sprague-Dawley rat at 1 mg/kg by LC/MS/MS analysis. To be noted: in vivo. Format: ADME, organism-based.

For orientation: DC50 means the midpoint of the concentration-degradation curve. The term IC50 denotes the concentration that inhibits the measured activity by half. By clearance is commonly meant the volume of plasma or blood freed of the substance per unit of time. The term CL/F denotes clearance divided by bioavailability, as obtained after extravascular dosing. A word on the half-life: it is the time in which the quantity being followed falls by half. High values mean slow decline, low ones rapid decline. By bioavailability is commonly meant the share of a dose that reaches the circulation, judged against a reference dose that is usually intravenous.

Serine/threonine-protein kinase PLK1, sequence (P53350 whole entry, the tested form may be a part): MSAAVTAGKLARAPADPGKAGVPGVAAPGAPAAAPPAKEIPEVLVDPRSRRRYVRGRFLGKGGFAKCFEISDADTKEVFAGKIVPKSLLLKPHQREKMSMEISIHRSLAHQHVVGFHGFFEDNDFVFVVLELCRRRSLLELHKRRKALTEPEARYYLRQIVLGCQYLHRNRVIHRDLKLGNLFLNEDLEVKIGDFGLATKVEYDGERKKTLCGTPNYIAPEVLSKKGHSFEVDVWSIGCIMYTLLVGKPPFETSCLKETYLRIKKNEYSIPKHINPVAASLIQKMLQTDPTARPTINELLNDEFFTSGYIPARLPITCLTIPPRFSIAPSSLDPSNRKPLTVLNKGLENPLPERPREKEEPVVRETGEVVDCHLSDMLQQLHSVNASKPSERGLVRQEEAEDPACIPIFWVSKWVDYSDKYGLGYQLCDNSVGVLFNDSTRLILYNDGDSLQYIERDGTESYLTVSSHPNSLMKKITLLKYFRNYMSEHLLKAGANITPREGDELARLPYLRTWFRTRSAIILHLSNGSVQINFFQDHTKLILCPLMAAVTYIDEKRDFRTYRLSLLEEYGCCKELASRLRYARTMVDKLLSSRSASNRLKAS
Protein cereblon/Bromodomain-containing protein 4, sequence (Q96SW2 whole entry, looked up, other chains not shown): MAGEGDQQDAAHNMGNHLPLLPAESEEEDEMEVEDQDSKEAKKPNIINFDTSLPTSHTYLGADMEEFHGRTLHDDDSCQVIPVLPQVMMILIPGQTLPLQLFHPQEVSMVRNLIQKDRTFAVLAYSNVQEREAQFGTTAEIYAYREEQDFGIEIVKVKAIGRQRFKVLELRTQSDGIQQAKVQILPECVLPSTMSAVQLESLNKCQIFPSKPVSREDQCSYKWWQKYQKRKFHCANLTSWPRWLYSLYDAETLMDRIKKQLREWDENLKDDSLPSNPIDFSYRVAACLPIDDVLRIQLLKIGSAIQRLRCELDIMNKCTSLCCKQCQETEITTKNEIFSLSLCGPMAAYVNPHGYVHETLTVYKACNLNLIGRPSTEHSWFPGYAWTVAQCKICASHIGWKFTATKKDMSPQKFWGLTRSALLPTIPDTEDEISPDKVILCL

Regarding `CC(C)C[C@H](NC(=O)[C@H](C)NC(=O)[C@H](C)NC(=O)[C@H](C)NC(=O)[C@H](C)NC(=O)[C@H](CC(C)C)NC(=O)[C@@H](N)CCCNC(=N)N)C(=O)N[C@@H](CC(C)C)C(=O)N1CCC[C@H]1C(=O)N1CCC[C@H]1C(=O)N[C@H](C(=O)N[C@@H](CCC(=O)O)C(=O)N[C@@H](CCC(N)=O)C(=O)N[C@@H](CC(=O)O)C(=O)N[C@@H](CC(C)C)C(=O)N[C@@]1(C)CCC/C=C\CCC[C@@](C)(C(=O)N[C@@H](Cc2ccc(O)cc2)C(N)=O)NC(=O)[C@H](CC2CCCCC2)NC(=O)[C@H](CC(C)C)NC(=O)[C@H](CCCCN)NC1=O)[C@@H](C)O`, the DC50 in series [1] was determined as 10000 nM.

Take `CC1=CC(=O)[C@H]2/C(C=O)=C\C[C@H]3[C@@H]([C@@H](C)/C=C\C=C/C(=O)OCCOCCOC(=O)CC45CC6CC(CC(C6)C4)C5)CC[C@]3(C)C[C@H]12`: in the series with NCI/ADR-RES, the IC50 came to 870 nM.

`CC1=C/C(=N\OC(=O)c2ccc(CNC(=O)CCc3cn(CCCCCCOCCOCCNC(=O)[C@H](C)CCC4C5CC6CC(C5)CC4C6)nn3)cc2C)C(C)=CC1=O` (stereo partly specified) showed an IC50 in series [2] of 48200 nM.

Take `CC1=C/C(=N/OC(=O)c2ccccc2C)C(C)=CC1=O`: the concentration for half-maximal inhibition (IC50) with HeLa was 10500 nM; in [2] it was 1400 nM.

Consider `CC(C)C[C@H](NC(=O)CCOCCOCCOCCNC(=O)CNC1C2CC3CC(C2)CC1C3)C(=O)N[C@@H](CC(C)C)C(=O)N1CCC[C@H]1C(=O)N1CCC[C@H]1C(=O)N[C@H](C(=O)N[C@@H](CCC(=O)O)C(=O)N[C@@H](CCC(N)=O)C(=O)N[C@@H](CC(=O)O)C(=O)N[C@@H](CC(C)C)C(=O)N[C@@]1(C)CCC/C=C\CCC[C@@](C)(C(=O)N[C@@H](Cc2ccc(O)cc2)C(N)=O)NC(=O)[C@H](CC2CCCCC2)NC(=O)[C@H](CC(C)C)NC(=O)[C@H](CCCCN)NC1=O)[C@@H](C)O` (stereo partly specified), for which the DC50 in series [1] was found to be 5000 nM.

For `CCc1cc2c(cc1N1CCN(CCCCC(=O)NCC3CC4C=CC3C4)CC1)C(C)(C)c1[nH]c3cc(C#N)ccc3c1C2=O` (stereo unspecified), in series [3], the clearance is 138 mL/min/kg. The CL/F in series [4] stood at 41.4 mL/min/kg. In addition, the half-life in series [5] is 25.2 min; in series [6], 31.7 min. Further, the bioavailability in [7] came out at 8.6%.

On to `CC1=CC(=O)[C@H]2/C(C=O)=C\C[C@H]3[C@@H]([C@@H](C)/C=C\C=C/C(=O)OCCOCCOCCOCCOC(=O)CC45CC6CC(CC(C6)C4)C5)CC[C@]3(C)C[C@H]12`, for which, in the series with NCI/ADR-RES, the IC50 was found to be 2030 nM.

`CC1=CC(=O)[C@H]2/C(C=O)=C\C[C@H]3[C@@H]([C@@H](C)/C=C\C=C/C(=O)OCCCOC(=O)CC45CC6CC(CC(C6)C4)C5)CC[C@]3(C)C[C@H]12`: the half-inhibitory concentration (IC50) with NCI/ADR-RES was found to be 960 nM.

`CC1=C/C(=N\OC(=O)c2ccc(CNC(=O)CCc3cn(CCCCCCOCCOCCNC(=O)CC4C5CC6CC(C5)CC4C6)nn3)cc2C)C(C)=CC1=O` (stereo unspecified) registered a half-maximal inhibitory concentration (IC50) in [2] of 10500 nM.

For `CC1=CC(=O)[C@H]2/C(C=O)=C\C[C@H]3[C@@H]([C@@H](C)/C=C\C=C/C(=O)OCCOCCOCCOC(=O)CC45CC6CC(CC(C6)C4)C5)CC[C@]3(C)C[C@H]12`, the half-maximal inhibitory concentration (IC50) with NCI/ADR-RES was 480 nM.

In the case of `CC1=CC(=O)[C@H]2/C(C=O)=C\C[C@H]3[C@@H]([C@@H](C)/C=C\C=C/C(=O)OCCCCCCCCOC(=O)CC45CC6CC(CC(C6)C4)C5)CC[C@]3(C)C[C@H]12`, the concentration for half-maximal inhibition (IC50) with NCI/ADR-RES was 1490 nM.
